{"source": "patent US20220016101A1", "about": "(ACADIA Pharmaceuticals Inc., priority 2018, published 2022)", "system": "patients with MDD and an inadequate response to an SSRI or SNRI", "assay": "Massachusetts General Hospital Sexual Functioning Index (MGH-SFI), Study ACP-103-042", "type": "in vivo, human", "text": "“Massachusetts General Hospital Sexual Functioning Index (MGH-SFI)” is described, for instance, in Labbate and Lare, 2001, Psychother Psychosom. 70(4):221-225. This is a patient facing questionnaire that quantifies sexual dysfunction into 5 functional domains (“interest in sex,” “sexual arousal,” “ability to achieve orgasm,” “ability to maintain erection” (males only), and “sexual satisfaction”). Patients rate each item using a 6-point scale ranging from 1 (good function) to 6 (poor function). High scores indicate poor sexual functioning. […] The determination of the subject's status and eligibility for randomization in Stage 2 was made in a double-blind manner. […] Sexual functioning was assessed using the Massachusetts General Hospital Sexual Functioning Index or MGH-SFI (Labbate and Lare, 2001, Psychother Psychosom. 70(4):221-225). This is a patient facing questionnaire that quantifies sexual dysfunction into 5 functional domains (“interest in sex,” “sexual arousal,” “ability to achieve orgasm,” “ability to maintain erection” [malesonly], and “sexual satisfaction”). Patients rate each item using a 6-point scale ranging from 1 (good function) to 6 (poor function). The time frame for this scale is the past month. This scale was administered at baseline and Week 5 in both stages of the study. High scores indicate poor sexual functioning. In ACP-103-042 the mean scores for MGH-SFI at Baseline was calculated over all 5 domains for males and the 4 domains for females. For MGH-SFI (follow-up version) at Study Weeks 5 and 10, the mean was calculated in the same way as MGH-SFI at Baseline. […] Tables 10-27 summarize the detailed data of MGH-SFI individual items of the overall study group (Tables 10-15), the subgroup of age of <=50 (Tables 16-21) and the subgroup of age of >50 (Table 21-26). In Tables 9-26, ANCOVA=analysis of covariance; OC=observed cases; LSM=least squares mean; CI=confidence interval; SD=standard deviation; SE=standard error. Stage 1: Baseline=Study Week 0, Week 5=Study Week 5; Stage 2: Baseline=Study Week 5, Week 5=Study Weeks 10. LSM from the stage-specific ANCOVA analysis with the change from baseline as the outcome, treatment group as a factor, and the corresponding Baseline value as a covariate. 2-sided p-value for treatment difference from the stage-specific ANCOVA analysis. An treatment effect size (Cohen's d) is calculated using the formula: Effect Size=Least Square mean difference between PIM and PBO/SD. The corresponding 95% confidence interval for an effect size is calculated based on the theoretical probability distribution of the effect size. […] Tables 10-15 and 28-38 summarize the detailed data of MGH-SFI individual items of the overall study group (Tables 10-15), the female subgroup (Tables 33-37) and the male subgroup (Table 38-43). An treatment effect size (Cohen's d) is calculated using the formula: Effect Size=Least Square mean difference between PIM and PBO/SD. The corresponding 95% confidence interval for an effect size is calculated based on the theoretical probability distribution of the effect size. In Tables 10-15 and 28-38, ANCOVA=analysis of covariance; OC=observed cases; LSM=least squares mean; CI=confidence interval; SD=standard deviation; SE=standard error. Stage 1: Baseline=Study Week 0, Week 5=Study Week 5; Stage 2: Baseline=Study Week 5, Week 5=Study Weeks 10. LSM from the stage-specific ANCOVA analysis with the change from baseline as the outcome, treatment group as a factor, and the corresponding Baseline value as a covariate. 2-sided p-value for treatment difference from the stage-specific ANCOVA analysis. An treatment effect size (Cohen's d) is calculated using the formula: Effect Size=Least Square mean difference between PIM and PBO/SD. The corresponding 95% confidence interval for an effect size is calculated based on the theoretical probability distribution of the effect size.", "key": {"[1]": {"conditions": "male subgroup, Stage 2, PIM 34 mg"}, "[2]": {"conditions": "male subgroup, Stage 2, PIM 34 mg vs placebo, change from baseline to Week 5"}, "[3]": {"conditions": "male subgroup, Stage 2, PIM 34 mg, Week 5"}, "[4]": {"conditions": "subgroup <=50 years old, Stage 1, PIM 34 mg"}}, "data": [{"smiles": "CC(C)COc1ccc(CNC(=O)N(Cc2ccc(F)cc2)C2CCN(C)CC2)cc1", "note": "[pimavanserin, N-(4-Fluorophenylmethyl)-N-(1-methylpiperidin-4-yl)-N′-(4-(2-methylpropyloxy)phenylmethyl)carbamide]", "values": [{"measurement": "MGH-SFI Item 02: Ability to Get Sexually Aroused or Excited, Change from Baseline to Week 5, Median", "setting": "[1]", "value": "−1.0"}, {"measurement": "MGH-SFI Item 03: Ability to Achieve Orgasm, Change from Baseline to Week 5, Mean (SE)", "setting": "[1]", "value": "−0.8 (0.36)"}, {"measurement": "MGH-SFI Item 03: Ability to Achieve Orgasm, Change from Baseline to Week 5, Median", "setting": "[1]", "value": 0.0}, {"measurement": "MGH-SFI Item 04: (Men) Ability to Get and Maintain an Erection, Change from Baseline to Week 5, Mean (SE)", "setting": "[1]", "value": "−1.0 (0.41)"}, {"measurement": "MGH-SFI Item 04: (Men) Ability to Get and Maintain an Erection, Change from Baseline to Week 5, Median", "setting": "[1]", "value": "−1.0"}, {"measurement": "MGH-SFI Item 05: Overall Sexual Satisfaction, Change from Baseline to Week 5, Mean (SE)", "setting": "[1]", "value": "−1.4 (0.50)"}, {"measurement": "MGH-SFI Item 05: Overall Sexual Satisfaction, Change from Baseline to Week 5, Median", "setting": "[1]", "value": "−1.0"}, {"measurement": "MGH-SFI Item 06: Overall Improvement Since Last Medication Change, Effect Size (Cohen's d)", "setting": "male subgroup, Stage 2, PIM 34 mg vs placebo, Week 5", "value": 0.405}, {"measurement": "MGH-SFI Item 02: Ability to Get Sexually Aroused or Excited, Effect Size (Cohen's d)", "setting": "[2]", "value": "−0.154"}, {"measurement": "MGH-SFI Item 03: Ability to Achieve Orgasm, Effect Size (Cohen's d)", "setting": "[2]", "value": 0.497}, {"measurement": "MGH-SFI Item 04: (Men) Ability to Get and Maintain an Erection, Effect Size (Cohen's d)", "setting": "[2]", "value": 0.701}, {"measurement": "MGH-SFI Item 05: Overall Sexual Satisfaction, Effect Size (Cohen's d)", "setting": "[2]", "value": 0.511}, {"measurement": "MGH-SFI Item 02: Ability to Get Sexually Aroused or Excited, Week 5, Mean (SE)", "setting": "[3]", "value": "3.6 (0.47)"}, {"measurement": "MGH-SFI Item 02: Ability to Get Sexually Aroused or Excited, Week 5, Median", "setting": "[3]", "value": 4.0}, {"measurement": "MGH-SFI Item 03: Ability to Achieve Orgasm, Week 5, Mean (SE)", "setting": "[3]", "value": "3.6 (0.56)"}, {"measurement": "MGH-SFI Item 03: Ability to Achieve Orgasm, Week 5, Median", "setting": "[3]", "value": 4.0}, {"measurement": "MGH-SFI Item 04: (Men) Ability to Get and Maintain an Erection, Week 5, Mean (SE)", "setting": "[3]", "value": "3.1 (0.54)"}, {"measurement": "MGH-SFI Item 04: (Men) Ability to Get and Maintain an Erection, Week 5, Median", "setting": "[3]", "value": 4.0}, {"measurement": "MGH-SFI Item 05: Overall Sexual Satisfaction, Week 5, Mean (SE)", "setting": "[3]", "value": "3.0 (0.53)"}, {"measurement": "MGH-SFI Item 05: Overall Sexual Satisfaction, Week 5, Median", "setting": "[3]", "value": 3.0}, {"measurement": "MGH-SFI Item 06: Overall Improvement Since Last Medication Change, Week 5, Mean (SE)", "setting": "[3]", "value": "3.7 (0.53)"}, {"measurement": "MGH-SFI Item 06: Overall Improvement Since Last Medication Change, Week 5, Median", "setting": "[3]", "value": 4.0}, {"measurement": "MGH-SFI 01: Interest in Sex, Effect Size (Cohen's d)", "setting": "male subgroup, Stage 2, positive = pimavanserin better than placebo", "value": 0.174}, {"measurement": "MGH-SFI Items 1, 2, 3, and 5 mean change from baseline to Week 5 vs placebo", "setting": "overall study group", "value": "significantly greater"}, {"measurement": "MGH-SFI 04: (Men) Ability to Get and Maintain an Erection, Change from Baseline to Week 5 Mean (SE)", "setting": "[4]", "value": "−1.7 (1.45)"}, {"measurement": "MGH-SFI 04: (Men) Ability to Get and Maintain an Erection, Change from Baseline to Week 5 Median", "setting": "[4]", "value": "−2.0"}, {"measurement": "MGH-SFI 04: (Men) Ability to Get and Maintain an Erection, Week 5 Mean (SE)", "setting": "[4]", "value": "2.3 (0.67)"}, {"measurement": "MGH-SFI 04: (Men) Ability to Get and Maintain an Erection, Week 5 Median", "setting": "[4]", "value": 3.0}, {"measurement": "MGH-SFI 05: Overall Sexual Satisfaction, Change from Baseline to Week 5 Mean (SE)", "setting": "[4]", "value": "−0.5 (0.35)"}, {"measurement": "MGH-SFI 05: Overall Sexual Satisfaction, Change from Baseline to Week 5 Median", "setting": "[4]", "value": 0.0}, {"measurement": "MGH-SFI 05: Overall Sexual Satisfaction, Week 5 Mean (SE)", "setting": "[4]", "value": "3.6 (0.43)"}, {"measurement": "MGH-SFI 05: Overall Sexual Satisfaction, Week 5 Median", "setting": "[4]", "value": 4.0}, {"measurement": "MGH-SFI 06: Overall Improvement Since Last Medication Change, Week 5 Mean (SE)", "setting": "[4]", "value": "3.0 (0.24)"}, {"measurement": "MGH-SFI 06: Overall Improvement Since Last Medication Change, Week 5 Median", "setting": "[4]", "value": 3.0}, {"measurement": "MGH-SFI 04: (Men) Ability to Get and Maintain an Erection, Effect Size (Cohen's d)", "setting": "subgroup <=50 years old, Stage 1, PIM 34 mg vs placebo", "value": 0.877}]}]}
